The target in series [1] is Multidrug resistance-associated protein 1 (Homo sapiens, UniProt P33527). Kind of series: TP_TRANSPORTER: inhibition of CFDA efflux (CFDA: 1 uM, DHT: 5-50 uM) in HL60/Adr cells. The series is classed as functional, cell-based.
Series [2] addresses Multidrug resistance-associated protein 1 (MRP1) (Homo sapiens, UniProt P33527). The series is described as follows: TP_TRANSPORTER: inhibition of CFDA efflux (CFDA: 1 uM, Genistein: 10 mM) in HL60/Adr cells. The series is classed as functional, cell-based. Conditions: probe CFDA, read-out: Activity.

Experimental findings from ChEMBL document CHEMBL2073888, “Dehydrothyrsiferol does not modulate multidrug resistance-associated protein 1 resistance: a functional screening system for MRP1 substrates” (Int J Mol Med, 2002) are described below.

Sequence of Multidrug resistance-associated protein 1 (P33527 whole entry): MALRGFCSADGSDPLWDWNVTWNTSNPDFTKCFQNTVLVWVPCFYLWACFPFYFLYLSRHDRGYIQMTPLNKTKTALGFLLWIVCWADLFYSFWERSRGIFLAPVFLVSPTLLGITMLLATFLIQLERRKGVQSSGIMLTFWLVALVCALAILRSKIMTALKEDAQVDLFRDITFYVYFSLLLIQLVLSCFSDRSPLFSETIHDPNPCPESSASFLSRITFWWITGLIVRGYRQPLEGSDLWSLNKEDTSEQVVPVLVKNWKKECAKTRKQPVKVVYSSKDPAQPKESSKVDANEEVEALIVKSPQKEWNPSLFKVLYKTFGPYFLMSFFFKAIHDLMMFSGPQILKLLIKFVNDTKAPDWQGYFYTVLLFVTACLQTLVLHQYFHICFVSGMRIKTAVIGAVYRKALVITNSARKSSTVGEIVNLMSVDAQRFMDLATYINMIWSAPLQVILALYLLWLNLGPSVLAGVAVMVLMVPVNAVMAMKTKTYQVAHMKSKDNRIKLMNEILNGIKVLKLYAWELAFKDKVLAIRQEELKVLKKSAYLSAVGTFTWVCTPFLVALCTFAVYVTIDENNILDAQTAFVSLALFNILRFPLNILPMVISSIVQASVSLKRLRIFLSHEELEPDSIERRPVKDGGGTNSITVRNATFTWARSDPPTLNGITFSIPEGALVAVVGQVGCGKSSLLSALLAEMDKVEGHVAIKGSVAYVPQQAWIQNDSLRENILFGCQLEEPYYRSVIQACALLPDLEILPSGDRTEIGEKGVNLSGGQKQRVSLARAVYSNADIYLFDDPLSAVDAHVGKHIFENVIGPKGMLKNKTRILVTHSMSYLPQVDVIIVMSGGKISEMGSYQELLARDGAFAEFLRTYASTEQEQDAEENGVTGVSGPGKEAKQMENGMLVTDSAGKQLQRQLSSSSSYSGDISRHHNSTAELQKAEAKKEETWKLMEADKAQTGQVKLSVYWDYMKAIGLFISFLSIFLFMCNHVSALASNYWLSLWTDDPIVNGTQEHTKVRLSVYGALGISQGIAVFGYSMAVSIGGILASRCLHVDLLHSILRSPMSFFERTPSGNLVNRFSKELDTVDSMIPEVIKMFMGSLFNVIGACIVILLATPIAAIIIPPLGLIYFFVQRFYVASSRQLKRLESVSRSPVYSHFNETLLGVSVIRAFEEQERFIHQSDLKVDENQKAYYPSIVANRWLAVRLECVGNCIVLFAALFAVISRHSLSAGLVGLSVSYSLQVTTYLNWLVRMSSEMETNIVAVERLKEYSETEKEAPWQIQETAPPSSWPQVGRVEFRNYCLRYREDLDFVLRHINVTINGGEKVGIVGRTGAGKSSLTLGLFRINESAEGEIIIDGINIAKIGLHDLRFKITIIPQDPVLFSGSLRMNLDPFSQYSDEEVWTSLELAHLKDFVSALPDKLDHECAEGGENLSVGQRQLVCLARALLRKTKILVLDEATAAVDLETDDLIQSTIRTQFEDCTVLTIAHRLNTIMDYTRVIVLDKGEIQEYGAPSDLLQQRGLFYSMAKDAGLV
Sequence of Multidrug resistance-associated protein 1 (MRP1) (P33527 whole entry): as above

Consider `C=C(CC[C@H](O)[C@@]1(C)CC[C@H](C(C)(C)O)O1)[C@H]1CC[C@H]2O[C@@H]([C@]3(C)CC[C@@H](Br)C(C)(C)O3)CC[C@]2(C)O1` [DEHYDROTHYRSIFEROL], for which the Activity entry in series [1] was “is not an inhibitor [-]”.
With `O=c1c(-c2ccc(O)cc2)coc2cc(O)cc(O)c12` [GENISTEIN], the inhibition at 10 mM in series [2] came to 94.6%.
